Key:
isolated dog heart = conditions: cited from earlier work
[1] = tested on: isolated rat diaphragm muscle; conditions: cited from earlier work
adipose tissue = conditions: cited from earlier work
atrial tissue = conditions: in vitro; cited from earlier work
myocardial glycogen = conditions: cited from earlier work; for myocardial glycogen: intravenous infusion
[2] = tested on: central nervous system pathologies; conditions: brain edema, cranial trauma, cerebral ischemia, chronic cerebrovascular diseases, Parkinson's disease; cited from earlier work
[3] = cited from earlier work
liver function = conditions: in vivo; cited from earlier work
[4] = tested on: pyrimidine nucleoside phosphorylases; conditions: rat, in vivo; cited from earlier work
skeletal muscles = conditions: rat, in vivo; cited from earlier work
brain = conditions: in vivo; cited from earlier work
isolated rat heart = conditions: cited from earlier work
[5] = tested on: adrenalin-induced myocardial necrosis; conditions: cited from earlier work; for mortality and myocardial function: ECG readings, biochemical findings, relative heart weight
[6] = cited from earlier work; remark: listed apart in the source
[7] = tested on: experimentally-induced seizures; conditions: intraperitoneal injection; cited from earlier work
[8] = tested on: adrenalin-induced myocardial dystrophy; conditions: rat, in vivo; cited from earlier work
isolated rabbit hearts = conditions: cited from earlier work
[9] = tested on: isolated, perfused rat liver; conditions: in a single passage; cited from earlier work
myocardium = conditions: pretreatment; 2 hours after aortic stenosis; cited from earlier work
[10] = in vivo, po
Description: Blood samples (0.5 ml) were withdrawn at intervals of 1, 2, 3, and 4 hours after ingestion of the compound and were processed for subsequent determination of plasma uridine content by HPLC. On a separate day, the same procedure was carried out, except that an equal molar dose (18 mg/kg--1.3 grams in a 70 kilogram subject) of uridine was ingested instead of the acyl derivative.

[11] = tested on: skeletal and cardiac muscle; conditions: cited from earlier work
isolated rat hearts [12] = conditions: cited from earlier work
heart = conditions: cited from earlier work
isolated rat hearts [13] = conditions: reperfusion after low-flow ischemia; cited from earlier work
hepatocytes = conditions: cited from earlier work
[14] = tested on: tyrosine-alpha-ketoglutarate; conditions: alone or in various combinations; cited from earlier work
[15] = Bioavailability of uridine and acyl uridine derivatives in rats (plasma by HPLC); format: in vivo, male F344 rats; conditions: rat, intubation into stomach, 0.28 moles/kg (printed), for at least four hours following ingestion
Description: Silastic catheters were implanted into the right jugular veins of anesthetized male F344 rats (Retired Breeders, 450-500 grams). After three days of recovery from surgery, the animals were placed in deep cylindrical cages, and their catheters were extended with a lengthened polyvinyl tubing, so that blood samples would be withdrawn without disturbing the rats. Basal blood samples were taken and the animals were divided into four groups, each containing four rats.

OC[C@H]1O[C@@H](n2cnc3c(O)ncnc32)[C@H](O)[C@@H]1O [inosine]
inotropic effect (isolated dog heart): positive inotropic | glucose uptake [1]: stimulate glucose uptake | lipolysis (adipose tissue): inhibited lipolysis

O=C[C@H](O)[C@@H](O)[C@H](O)[C@H](O)CO [glucose]
contractability and extensibility of atrial tissue (atrial tissue): restored

Nc1ncnc2c1ncn2[C@@H]1O[C@H](CO)[C@@H](O)[C@H]1O [adenosine]
inotropic effect (isolated dog heart): negatively inotropic

O=C[C@H](O)[C@H](O)[C@H](O)CO [ribose]
myocardial glycogen (myocardial glycogen): restoration of myocardial glycogen

C[N+](C)(C)CCOP(=O)(O)OP(=O)([O-])OC[C@H]1O[C@@H](n2ccc(N)nc2=O)[C@H](O)[C@@H]1O [CDP-choline, cytidine-diphosphocholine]
therapeutic efficacy [2]: Therapeutic efficacy has been documented | time of breakdown to cytidine and choline ([3]; intravenous injection): ≤ 30 s | intact compound in circulation ([3]; oral): no intact CDP-choline enters the circulation | plasma cytidine and choline concentrations ([3]; oral): rise | degradation following administration ([3]; yielding cytidine, choline, and phosphate): very rapidly degraded

CC(C)NCC(O)c1ccc(O)c(O)c1 (stereo not shown) [isoproterenol]
cardiac glycogen stores, myocardial UTP and UDP-glucose levels (myocardial glycogen; isoproterenol): depleted cardiac glycogen stores and reduced myocardial UTP and UDP-glucose levels

Cc1cn([C@H]2C[C@H](O)[C@@H](CO)O2)c(=O)[nH]c1=O [thymidine]
inotropic effect (isolated dog heart): positive inotropic

O=c1ccn([C@@H]2O[C@H](COP(=O)(O)OP(=O)(O)O)[C@@H](O)[C@H]2O)c(=O)[nH]1 [uridine diphosphate]
improvement of liver function (liver function): improve certain aspects of liver function

Nc1ccn([C@@H]2O[C@H](CO)[C@@H](O)[C@H]2O)c(=O)n1 [cytidine]
inotropic effect (isolated dog heart): negatively inotropic | specific activity of liver homogenates [4]: increased | muscular concentrations of Krebs cycle intermediates (skeletal muscles): affect the muscular concentrations of Krebs cycle intermediates | brain uptake (brain): not very readily taken up by the brain | myocardial cytosine nucleotide levels (isolated rat heart; 30 minute supply of cytidine): significantly increased | conversion of cytidine taken up into uridine nucleotides (isolated rat heart): Very little

O=C(O)[C@H]1O[C@H](OP(=O)(O)OP(=O)(O)OC[C@H]2O[C@@H](n3ccc(=O)[nH]c3=O)[C@H](O)[C@@H]2O)[C@H](O)[C@@H](O)[C@@H]1O [uridine-diphosphoglucuronic acid]
improvement of liver function (liver function): improve certain aspects of liver function

O=C([O-])c1cc(=O)[nH]c(=O)[nH]1.[K+] [potassium orotate]
mortality and myocardial function [5]: reduced mortality and improved myocardial function | resistance to adrenalin-induced myocardial necrosis ([5]; in vivo): increase the animal's resistance

O=c1ccn([C@@H]2O[C@H](CO)[C@@H](O)[C@H]2O)c(=O)[nH]1 [uridine]
plasma levels of uridine ([6]; mouse, in vivo, po, 350 mg/kg): not perturbed | elevation of plasma uridine levels ([6]; mouse, in vivo, po, 3500 mg/kg): observed only after oral administration of high doses | time to return of plasma uracil to normal ([6]; oral uridine, 350 mg/kg): 4 h | anticonvulsant effect [7]: strong protection | inotropic effect (isolated dog heart): positive inotropic | protective effect in adrenalin-induced myocardial dystrophy [8]: relatively ineffective | myocardial performance, glucose uptake, glycolysis, glycogen and adenine nucleotides (isolated rabbit hearts; hypoxic hearts): increased myocardial performance, glucose uptake and glycolysis and also diminished the disappearance of glycogen and adenine nucleotides | glucose uptake, glycolysis, ATP and glycogen levels, myocardial performance (isolated rabbit hearts; propranolol-treated hearts): increased glucose uptake, glycolysis, levels of ATP and glycogen, as well as myocardial performance | myocardial glycogen (myocardial glycogen): restoration of myocardial glycogen | degradation of infused uridine [9]: more than 90% | glucose uptake [1]: stimulate glucose uptake | glycogen synthesis [1]: only uridine increased glycogen synthesis | decrease in maximal pressure upon aortic ligation (myocardium): prevented | lipolysis (adipose tissue): inhibited lipolysis | plasma uridine level [10]: exceeded 10 micromolar | contractability and extensibility of atrial tissue (atrial tissue): restored | glucose uptake and glycogen synthesis [11]: enhance glucose uptake and glycogen synthesis | rate of incorporation of uridine (isolated rat hearts [12]; following low-flow ischemia): increased twofold | myocardial uracil nucleotide content (isolated rat hearts [12]; perfusion): concentration-dependent elevation | supporting myocardial hyperfunction (heart; in vivo): relatively ineffective | myocardial heart-pathology benefit of uridine in intact animals (heart; intact (alive and free-running) animals): no beneficial effect | difference from controls in rats developing hypertrophy of the heart (heart; rat, in vivo): no difference | myocardial ATP levels, total adenine nucleotide content, uridine nucleotide levels, glycogen content (isolated rat hearts [13]): induced restoration | incorporation of glucose into glycogen (hepatocytes): increase | tissue uridine nucleotide pools (hepatocytes): expanded

O=c1ccn([C@@H]2O[C@H](COP(=O)([O-])[O-])[C@@H](O)[C@H]2O)c(=O)[nH]1.[Na+].[Na+] [UMP, Sodium uridine monophosphate]
mortality and myocardial function [5]: reduced mortality and improved myocardial function | prophylactic effect vs potassium orotate ([5]; in vivo): more pronounced prophylactic effect | resistance to adrenalin-induced myocardial necrosis ([5]; in vivo): increase the animal's resistance

C[C@]12CCC(=O)C=C1CC[C@@H]1[C@@H]2[C@@H](O)C[C@@]2(C)[C@H]1CC[C@]2(O)C(=O)CO [hydrocortisone]
tyrosine-alpha-ketoglutarate activity [14]: increase

Nc1nc2c(ncn2[C@@H]2O[C@H](CO)[C@@H](O)[C@H]2O)c(=O)[nH]1 [guanosine]
inotropic effect (isolated dog heart): positive inotropic

O=c1ccn([C@@H]2O[C@H](COP(=O)(O)O)[C@@H](O)[C@H]2O)c(=O)[nH]1 [uridine-5'-monophosphate]
protective effect in adrenalin-induced myocardial dystrophy [8]: protective effect

CC(=O)OC[C@H]1O[C@@H](n2ccc(=O)[nH]c2=O)[C@H](OC(C)=O)[C@@H]1OC(C)=O [TAU, 2',3',5'-tri-O-acetyl uridine]
plasma level of uridine vs equal molar dose of uridine [10]: substantially higher | plasma uridine level [10]: exceeded 10 micromolar | time uridine levels sustained in the useful therapeutic range [10]: at least four | plasma levels of uridine vs equimolar dose of uridine [15]: significantly higher for at least four hours

Source: US5583117A (priority 1993, dated 1996)
